Assay results taken from the supplement of paper PMC8671470.

Assays:
Conditions in all cases: 72 h
[1] = tested on: SHI-1; test: cell viability (% survival relative to DMSO control, bortezomib = 0%); higher = less cytotoxic
Method in brief: (§1)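 After 72 h at 37 °C with 5% CO2, cell viability in 384-well plates was measured by CellTiter-Glo luminescence. The plates held compounds pre-printed at 1, 10, 100, 1000 or 10000 nM in duplicate, and cells from 10 AML and 5 CML lines seeded at densities titrated to linear growth. Percent survival is the duplicate mean, normalised to vehicle as 100% and a 10 µM positive control as 0%.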

[2] = tested on: HEL; test: as above
Method in brief: as §1

[3] = tested on: NOMO-1; test: as above
Method in brief: as §1

[4] = tested on: ML-2; test: as above
Method in brief: as §1

[5] = tested on: BV-173; test: as above
Method in brief: as §1

[6] = tested on: K-562; test: as above
Method in brief: as §1

[7] = tested on: MOLM-13; test: as above
Method in brief: as §1

[8] = tested on: KG-1; test: as above
Method in brief: as §1

[9] = tested on: KU-812; test: as above
Method in brief: as §1

[10] = tested on: THP-1; test: as above
Method in brief: as §1

[11] = tested on: LAMA-84; test: as above
Method in brief: as §1

[12] = tested on: KCL-22; test: as above
Method in brief: as §1

[13] = tested on: HL-60; test: as above
Method in brief: as §1

[14] = tested on: Mono-Mac-6; test: as above
Method in brief: as §1

[15] = tested on: MV4-11; test: as above
Method in brief: as §1

[16] = tested on: SHI-1
Method in brief: (§2)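 Fifteen myeloid leukaemia lines in RPMI 1640 were treated for 72 h at 37 °C and 5% CO2 with five tenfold doses from 1 to 10,000 nM, in duplicate. ATP luminescence was normalised to vehicle and to a positive control at 10 µM, then fitted with a four-parameter log-logistic model. The IC50 came from these fits.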

[17] = tested on: HEL
Method in brief: as §2

[18] = tested on: NOMO-1
Method in brief: as §2

[19] = tested on: ML-2
Method in brief: as §2

[20] = tested on: BV-173
Method in brief: as §2

[21] = tested on: K-562
Method in brief: as §2

[22] = tested on: MOLM-13
Method in brief: as §2

[23] = tested on: KG-1
Method in brief: as §2

[24] = tested on: KU-812
Method in brief: as §2

[25] = tested on: THP-1
Method in brief: as §2

[26] = tested on: LAMA-84
Method in brief: as §2

[27] = tested on: KCL-22
Method in brief: as §2

[28] = tested on: HL-60
Method in brief: as §2

[29] = tested on: Mono-Mac-6
Method in brief: as §2

[30] = tested on: MV4-11
Method in brief: as §2

[31] = tested on: myeloid leukemia patient primary cells Pat.8; test: area under dose-response curve (viability, 1 nM-10 uM) (fraction (0-1)); higher = more sensitive
Experimental: (§3)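 AUC (0–1, higher = more sensitive) of the 5-point dose–response (1 nM–10 µM, 72 h, CellTiter-Glo) in primary AML/CML patient mononuclear cells. 0.030103 is the floor for inactive compounds.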

[32] = tested on: myeloid leukemia patient primary cells Pat.1; test: as above
Experimental: as §3

[33] = tested on: myeloid leukemia patient primary cells Pat.14; test: as above
Experimental: as §3

[34] = tested on: myeloid leukemia patient primary cells Pat.13; test: as above
Experimental: as §3

[35] = tested on: myeloid leukemia patient primary cells Pat.10; test: as above
Experimental: as §3

[36] = tested on: myeloid leukemia patient primary cells Pat.2; test: as above
Experimental: as §3

[37] = tested on: myeloid leukemia patient primary cells Pat.9; test: as above
Experimental: as §3

[38] = tested on: myeloid leukemia patient primary cells Pat.11; test: as above
Experimental: as §3

[39] = tested on: myeloid leukemia patient primary cells Pat.3; test: as above
Experimental: as §3

[40] = tested on: myeloid leukemia patient primary cells Pat.5; test: as above
Experimental: as §3

[41] = tested on: myeloid leukemia patient primary cells Pat.15; test: as above
Experimental: as §3

[42] = tested on: myeloid leukemia patient primary cells Pat.4; test: as above
Experimental: as §3

[43] = tested on: myeloid leukemia patient primary cells Pat.12; test: as above
Experimental: as §3

[44] = tested on: myeloid leukemia patient primary cells Pat.7; test: as above
Experimental: as §3

[45] = tested on: myeloid leukemia patient primary cells Pat.6; test: as above
Experimental: as §3

[46] = tested on: myeloid leukemia patient primary cells Pat.8; test: cell viability (% survival relative to DMSO control); higher = less cytotoxic
Method in brief: (§4)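 Where an area under the curve appears, it was computed with the drc and PharmacoGx R packages from log-logistic fits. Those fits used four parameters. The underlying viability data came from CellTiter-Glo after 72 h, normalised to DMSO and 10 μM proteasome-inhibitor wells, with thawed, Ficoll-purified AML or CML patient mononuclear cells at 10,000 cells/well in RPMI 1640 with 10% FBS on 384-well plates pre-printed with 70 compounds at five tenfold concentrations (1–10,000 nM) in duplicate.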

[47] = tested on: myeloid leukemia patient primary cells Pat.1; test: as above
Method in brief: as §4

[48] = tested on: myeloid leukemia patient primary cells Pat.14; test: as above
Method in brief: as §4

[49] = tested on: myeloid leukemia patient primary cells Pat.13; test: as above
Method in brief: as §4

[50] = tested on: myeloid leukemia patient primary cells Pat.10; test: as above
Method in brief: as §4

[51] = tested on: myeloid leukemia patient primary cells Pat.2; test: as above
Method in brief: as §4

[52] = tested on: myeloid leukemia patient primary cells Pat.9; test: as above
Method in brief: as §4

[53] = tested on: myeloid leukemia patient primary cells Pat.11; test: as above
Method in brief: as §4

[54] = tested on: myeloid leukemia patient primary cells Pat.3; test: as above
Method in brief: as §4

[55] = tested on: myeloid leukemia patient primary cells Pat.5; test: as above
Method in brief: as §4

[56] = tested on: myeloid leukemia patient primary cells Pat.15; test: as above
Method in brief: as §4

[57] = tested on: myeloid leukemia patient primary cells Pat.4; test: as above
Method in brief: as §4

[58] = tested on: myeloid leukemia patient primary cells Pat.12; test: as above
Method in brief: as §4

[59] = tested on: myeloid leukemia patient primary cells Pat.7; test: as above
Method in brief: as §4

[60] = tested on: myeloid leukemia patient primary cells Pat.6; test: as above
Method in brief: as §4

COc1cc(/C=C/c2ccc(OC)cc2OC)cc(OC)c1 [2,3',4,5'-Tetramethoxystilbene]
cell viability [%]
Conditions | 1 nM | 10 nM | 100 nM | 1000 nM | 10000 nM
[1] | 99.7 | 123 | 99.4 | 104 | 98.9
[2] | 106 | 106 | 99.2 | 103 | 106
[3] | 97.5 | 106 | 95.7 | 108 | 94.9
[4] | 80.1 | 102 | 102 | 115 | 72.9
[5] | 104 | 104 | 99.1 | 103 | 79.6
[6] | 108 | 113 | 106 | 101 | 89.5
[7] | 105 | 105 | 86.4 | 107 | 100
[8] | 94.9 | 110 | 91.9 | 101 | 79.7
[9] | 101 | 95.5 | 96.9 | 97.4 | 76.8
[10] | 97.3 | 107 | 108 | 109 | 75.3
[11] | 103 | 104 | 99.4 | 96.4 | 94.3
[12] | 94.7 | 110 | 98.7 | 106 | 104
[13] | 109 | 86.2 | 96.2 | 105 | 81.2
[14] | 94.6 | 97.2 | 95.3 | 100 | 104
[15] | 103 | 106 | 98.4 | 98.4 | 86

Conditions | IC50 (cell viability) [µM]
[16] | > 10
[17] | > 10
[18] | > 10
[19] | > 10
[20] | > 10
[21] | > 10
[22] | > 10
[23] | > 10
[24] | > 10
[25] | > 10
[26] | > 10
[27] | > 10
[28] | > 10
[29] | > 10
[30] | > 10

CC(C)c1onc(-c2c(Cl)cccc2Cl)c1COc1ccc(/C=C/c2cccc(C(=O)O)c2)c(Cl)c1 [GW 4064]
Conditions | area under dose-response curve
[31] | < 0.0301
[32] | < 0.0301
[33] | 0.18
[34] | 0.0666
[35] | 0.473
[36] | < 0.0301
[37] | 0.539
[38] | < 0.0301
[39] | 0.323
[40] | 0.413
[41] | < 0.0301
[42] | < 0.0301
[43] | < 0.0301
[44] | 0.278
[45] | 0.0544

cell viability [%]
Conditions | 1 nM | 10 nM | 100 nM | 1000 nM | 10000 nM
[46] | 91.6 | 88.4 | 64 | 90.2 | 81.9
[47] | > 100 | 91.2 | 95.4 | 99.2 | 68.8
[48] | 84.9 | 69.6 | 66 | 63.2 | 2.05
[49] | 99.3 | 88.8 | 78.5 | 81.7 | 52.7
[50] | 61.6 | 86.6 | 38.4 | 8.43 | 9.05
[51] | 98.1 | 94.5 | 84.4 | 96.8 | 92.7
[52] | 59.1 | 40.4 | 48.8 | 3.95 | < 0
[53] | 96.4 | 95.9 | 99.3 | 90.6 | 74.3
[54] | 83.5 | 78.7 | 86.3 | 16.1 | 0.177
[55] | 80.1 | 49.1 | 67.6 | 2.27 | 0.265
[56] | 92.6 | 95.2 | 95.5 | 98 | 89.7
[57] | 81.1 | 92 | 96.4 | 91.2 | 64
[58] | 92.5 | 94.8 | 97.5 | 95.5 | 89.8
[59] | 64.4 | 67.8 | 67.5 | 40.3 | < 0
[60] | > 100 | 94.1 | 99.2 | 92.7 | 62.8
